Measurements: paper PMC3155652 (Journal of inorganic biochemistry, 2011)
Ends that are not written are not given here.

Columns and labels:
holo Alexa-CaM [1] = molecular target: T1, holo Alexa-CaM (Homo sapiens, UniProt P0DP23, T111W/T35C); assay type: binding; details: 2 mM EDTA, stopped-flow
holo Alexa-CaM [2] = molecular target: T1, holo Alexa-CaM; assay: Stopped-flow association kinetics of NOS target peptides with holo Alexa-CaM; assay type: binding; details: pH 8
holo Alexa-CaM [3] = molecular target: T1, holo Alexa-CaM; assay: Apparent Kd calculated as koff/kon; assay type: binding
[4] = cited from earlier work; for rate of electron transfer to heme from FMN: ref [49]; for interdomain electron transfer FMN to heme: laser flash photolysis, in the presence of CaM, ref [50], [51]
holo CaM = holo CaM to immobilized target peptide, ref [21]; cited from earlier work

Row | Molecule | rate of electron transfer to heme from FMN [4] [s⁻¹] | interdomain electron transfer FMN to heme [4] [s⁻¹] | also measured
1 | CC[C@H](C)[C@H](NC(=O)[C@H](CCCCN)NC(=O)[C@@H](NC(=O)[C@H](C)NC(=O)[C@H](CC(N)=O)NC(=O)[C@H](C)NC(=O)[C@@H](NC(=O)[C@H](CCC(=O)O)NC(=O)[C@H](CCCCN)NC(=O)[C@H](Cc1ccccc1)NC(=O)[C@@H](NC(=O)[C@H](CCCCN)NC(=O)[C@H](CCCCN)NC(=O)[C@@H](N)CCCNC(=N)N)[C@@H](C)O)C(C)C)C(C)C)C(=O)N[C@@H](CO)C(=O)N[C@@H](C)C(=O)N[C@@H](CO)C(=O)N[C@@H](CC(C)C)C(=O)N[C@@H](CCSC)C(=O)NCC(=O)O [eNOS492–511] |  |  | fast phase, share of overall FW110 increase (holo Alexa-CaM [1]): 83%
2 | RRAIGFKKLAEAVKFSAKLMGGAM [nNOS726–749] |  |  | kon (holo Alexa-CaM [2]): 6.6e+08 M⁻¹ s⁻¹; fast phase, share of overall FW110 increase (holo Alexa-CaM [1]): 81%; Kd (holo Alexa-CaM [3]): 5.6 nM
3 | eNOS: endothelial NOS | 2 to 5 |  | 
4 | human iNOS: human inducible NOS |  | 34 | 
5 | iNOS: inducible NOS | 11 |  | 
6 | nNOS725–750: immobilized nNOS target peptide of previous SPR study (NGTPTKRRAIGFKKLAEAVKFSAKLM; UniProt P29475 725-750, looked up, fragment) |  |  | kon (binding rate by SPR) (holo CaM): 158000 M⁻¹ s⁻¹
7 | rat nNOS: rat neuronal NOS in the presence of CaM |  | 36 | 
8 | murine iNOS: murine inducible NOS (protein, UniProt P29477 1-1144, looked up) Nitric oxide synthase, …: MACPWKFLFKVKSYQSDLKEEKDINNNVKKTPCAVLSPTIQDDPKSHQNGSPQLLTGTAQNVPESLDKLHVTSTRPQYVRIKNWGSGEILHDTLHHKATSDFTCKSKSCLGSIMNPKSLTRGPRDKPTPLEELLPHAIEFINQYYGSFKEAKIEEHLARLEAVTKEIETTGTYQLTLDELIFATKMAWRNAPRCIGRIQWSNLQVFDARNCSTAQEMFQHICRHILYATNNGNIRSAITVFPQRSDGKHDFRLWNSQLIRYAGYQMPDGTIRGDAATLEFTQLCIDLGWKPRYGRFDVLPLVLQADGQDPEVFEIPPDLVLEVTMEHPKYEWFQELGLKWYALPAVANMLLEVGGLEFPACPFNGWYMGTEIGVRDFCDTQRYNILEEVGRRMGLETHTLASLWKDRAVTEINVAVLHSFQKQNVTIMDHHTASESFMKHMQNEYRARGGCPADWIWLVPPVSGSITPVFHQEMLNYVLSPFYYYQIEPWKTHIWQNEKLRPRRREIRFRVLVKVVFFASMLMRKVMASRVRATVLFATETGKSEALARDLATLFSYAFNTKVVCMDQYKASTLEEEQLLLVVTSTFGNGDCPSNGQTLKKSLFMLRELNHTFRYAVFGLGSSMYPQFCAFAHDIDQKLSHLGASQLAPTGEGDELSGQEDAFRSWAVQTFRAACETFDVRSKHHIQIPKRFTSNATWEPQQYRLIQSPEPLDLNRALSSIHAKNVFTMRLKSQQNLQSEKSSRTTLLVQLTFEGSRGPSYLPGEHLGIFPGNQTALVQGILERVVDCPTPHQTVCLEVLDESGSYWVKDKRLPPCSLSQALTYFLDITTPPTQLQLHKLARFATDETDRQRLEALCQPSEYNDWKFSNNPTFLEVLEEFPSLHVPAAFLLSQLPILKPRYYSISSSQDHTPSEVHLTVAVVTYRTRDGQGPLHHGVCSTWIRNLKPQDPVPCFVRSVSGFQLPEDPSQPCILIGPGTGIAPFRSFWQQRLHDSQHKGLKGGRMSLVFGCRHPEEDHLYQEEMQEMVRKRVLFQVHTGYSRLPGKPKVYVQDILQKQLANEVLSVLHGEQGHLYICGDVRMARDVATTLKKLVATKLNLSEEQVEDYFFQLKSQKRYHEDIFGAVFSYGAKKGSALEEPKATRL |  | 35 | 
9 | nNOS: neuronal NOS (protein, UniProt P29475 1-1434, looked up) Nitric oxide synthase 1: MEDHMFGVQQIQPNVISVRLFKRKVGGLGFLVKERVSKPPVIISDLIRGGAAEQSGLIQAGDIILAVNGRPLVDLSYDSALEVLRGIASETHVVLILRGPEGFTTHLETTFTGDGTPKTIRVTQPLGPPTKAVDLSHQPPAGKEQPLAVDGASGPGNGPQHAYDDGQEAGSLPHANGLAPRPPGQDPAKKATRVSLQGRGENNELLKEIEPVLSLLTSGSRGVKGGAPAKAEMKDMGIQVDRDLDGKSHKPLPLGVENDRVFNDLWGKGNVPVVLNNPYSEKEQPPTSGKQSPTKNGSPSKCPRFLKVKNWETEVVLTDTLHLKSTLETGCTEYICMGSIMHPSQHARRPEDVRTKGQLFPLAKEFIDQYYSSIKRFGSKAHMERLEEVNKEIDTTSTYQLKDTELIYGAKHAWRNASRCVGRIQWSKLQVFDARDCTTAHGMFNYICNHVKYATNKGNLRSAITIFPQRTDGKHDFRVWNSQLIRYAGYKQPDGSTLGDPANVQFTEICIQQGWKPPRGRFDVLPLLLQANGNDPELFQIPPELVLEVPIRHPKFEWFKDLGLKWYGLPAVSNMLLEIGGLEFSACPFSGWYMGTEIGVRDYCDNSRYNILEEVAKKMNLDMRKTSSLWKDQALVEINIAVLYSFQSDKVTIVDHHSATESFIKHMENEYRCRGGCPADWVWIVPPMSGSITPVFHQEMLNYRLTPSFEYQPDPWNTHVWKGTNGTPTKRRAIGFKKLAEAVKFSAKLMGQAMAKRVKATILYATETGKSQAYAKTLCEIFKHAFDAKVMSMEEYDIVHLEHETLVLVVTSTFGNGDPPENGEKFGCALMEMRHPNSVQEERKSYKVRFNSVSSYSDSQKSSGDGPDLRDNFESAGPLANVRFSVFGLGSRAYPHFCAFGHAVDTLLEELGGERILKMREGDELCGQEEAFRTWAKKVFKAACDVFCVGDDVNIEKANNSLISNDRSWKRNKFRLTFVAEAPELTQGLSNVHKKRVSAARLLSRQNLQSPKSSRSTIFVRLHTNGSQELQYQPGDHLGVFPGNHEDLVNALIERLEDAPPVNQMVKVELLEERNTALGVISNWTDELRLPPCTIFQAFKYYLDITTPPTPLQLQQFASLATSEKEKQRLLVLSKGLQEYEEWKWGKNPTIVEVLEEFPSIQMPATLLLTQLSLLQPRYYSISSSPDMYPDEVHLTVAIVSYRTRDGEGPIHHGVCSSWLNRIQADELVPCFVRGAPSFHLPRNPQVPCILVGPGTGIAPFRSFWQQRQFDIQHKGMNPCPMVLVFGCRQSKIDHIYREETLQAKNKGVFRELYTAYSREPDKPKKYVQDILQEQLAESVYRALKEQGGHIYVCGDVTMAADVLKAIQRIMTQQGKLSAEDAGVFISRMRDDNRYHEDIFGVTLRTYEVTNRLRSESIAFIEESKKDTDEVFSS | 40 to 50 |  | interdomain electron transfer FMN to heme in absence of CaM ([4]; absence of CaM, ref [51]): No such redox event was observed
